Experimental data reported in PMC11890623, “Pseudomonas aeruginosa acyl-CoA dehydrogenases and structure-guided inversion of their substrate specificity” (Nature Communications, 2025).

Assays:
[1] = biological target: T1, FadE2 (Pseudomonas aeruginosa, UniProt Q9I610); assay: X-ray crystal structure, […] Å; assay type: binding
T1 construct: gene PA0508; full-length ORF, His6 tag removed by TEV

[2] = biological target: T2, FadE1 (Pseudomonas aeruginosa, UniProt Q9I612); assay: X-ray crystal structure, […] Å; assay type: binding
T2 construct: gene PA0506; full-length ORF, His6 tag removed by TEV
T2 sequence (Q9I612 entry or part of it): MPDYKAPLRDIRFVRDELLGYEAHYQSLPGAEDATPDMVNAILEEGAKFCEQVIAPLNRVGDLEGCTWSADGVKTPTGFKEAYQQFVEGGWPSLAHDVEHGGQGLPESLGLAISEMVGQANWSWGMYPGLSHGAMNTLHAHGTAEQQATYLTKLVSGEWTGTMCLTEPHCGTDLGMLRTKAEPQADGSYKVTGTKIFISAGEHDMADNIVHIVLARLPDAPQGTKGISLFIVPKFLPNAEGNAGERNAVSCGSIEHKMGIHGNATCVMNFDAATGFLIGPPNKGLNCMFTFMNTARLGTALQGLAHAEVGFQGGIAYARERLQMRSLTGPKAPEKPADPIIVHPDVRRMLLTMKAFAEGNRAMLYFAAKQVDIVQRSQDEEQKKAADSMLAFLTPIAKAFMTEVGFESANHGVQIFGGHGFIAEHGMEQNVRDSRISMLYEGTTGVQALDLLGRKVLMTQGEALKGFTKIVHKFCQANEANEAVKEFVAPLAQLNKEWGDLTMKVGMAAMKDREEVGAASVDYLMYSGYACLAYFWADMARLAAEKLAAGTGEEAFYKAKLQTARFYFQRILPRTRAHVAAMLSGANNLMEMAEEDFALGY

T1 sequence (Q9I610 entry or part of it): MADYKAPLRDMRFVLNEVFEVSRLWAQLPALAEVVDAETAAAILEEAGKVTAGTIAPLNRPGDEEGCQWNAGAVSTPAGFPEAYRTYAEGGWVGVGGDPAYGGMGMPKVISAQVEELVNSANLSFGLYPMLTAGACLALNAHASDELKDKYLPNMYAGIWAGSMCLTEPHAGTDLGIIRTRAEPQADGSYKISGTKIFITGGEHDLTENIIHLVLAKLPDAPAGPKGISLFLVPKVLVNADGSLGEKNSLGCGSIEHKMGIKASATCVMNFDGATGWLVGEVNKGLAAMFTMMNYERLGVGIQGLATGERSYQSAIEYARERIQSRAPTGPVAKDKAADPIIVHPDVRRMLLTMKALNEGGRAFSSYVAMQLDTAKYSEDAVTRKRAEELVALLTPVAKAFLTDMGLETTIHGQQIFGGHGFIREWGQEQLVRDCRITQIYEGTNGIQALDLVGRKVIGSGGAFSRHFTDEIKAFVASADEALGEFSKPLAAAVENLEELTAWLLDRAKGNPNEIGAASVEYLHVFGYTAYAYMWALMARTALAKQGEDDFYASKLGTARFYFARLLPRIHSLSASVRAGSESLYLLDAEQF

Cc1cc2nc3c(=O)[nH]c(=O)nc-3n(C[C@H](O)[C@H](O)[C@H](O)COP(=O)(O)OP(=O)(O)OC[C@H]3O[C@@H](n4cnc5c(N)ncnc54)[C@H](O)[C@@H]3O)c2cc1C [FAD]
X-ray crystal structure, 1.94 Å [1]: One FAD molecule was bound in each protomer of FadE1 and FadE2.
X-ray crystal structure, 2.08 Å [2]: One FAD molecule was bound in each protomer of FadE1 and FadE2.
